EP4696306A1, “ADENOSINE TRIPHOSPHATE SECRETION INHIBITOR, HEPATIC STELLATE CELL ACTIVATION INHIBITOR, HEPATIC STELLATE CELL DEACTIVATOR, HEPATIC FIBROSIS THERAPEUTIC AGENT, NON-ALCOHOLIC STEATOHEPATITIS THERAPEUTIC AGENT, PSORIASIS THERAPEUTIC AGENT, AND USE OF COMPOUND FOR PRODUCING ADENOSINE TRIPHOSPHATE …” (KURUME UNIVERSITY, priority 2023, dated 2024)

Experiments:
catecholamine transport = test: Catecholamine (3H-dopamine) transport in chromaffin granule membranes; format: biochemical, bovine
Protocol: (§1) Chromaffin granule membranes were prepared from adrenal glands collected from slaughtered cattle according to Reference A (Nathan Nelson et al., 1988, Chromaffin Granule Proton Pump, Methods in Enzymology, 157, 619-633). Chromaffin granule membranes prepared by sucrose density gradient centrifugation were suspended in 2 ml of SME buffer (20 mM MOPS-tris (pH 7.0), 0.3 M sucrose, 5 mM EDTA, 10 µg/ml leupeptin, and 10 µg/ml pepstatin) + 25% glycerol, and the resulting suspension was aliquoted and stored at -80°C. Under these conditions, the ATP transport activity, the V-ATPase activity, and the catecholamine transport activity remain fully active for at least one year.
A catecholamine transport inhibition experiment was carried out in the same manner as the ATP transport experiment except that the experiment used a measurement liquid containing 20 mM MOPS-tris (pH 7.0), 0.1 M sucrose, 0.1 M potassium chloride, 5 mM magnesium acetate, and about 5 µg of chromaffin granule membranes. To 0.5 ml of the measurement liquid, 2 mM ATP was added, and the resulting mixture was incubated at 30°C for about 5 minutes, followed by addition of^3 [H]-dopamine thereto to a final concentration of 10 µM. After further incubation at 30°C for 15 minutes, 0.2 ml of the reaction liquid was subjected to suction filtration through a Millipore MCE membrane filter with a pore size of 0.45 µm, and the radioactivity on the filter was measured (N = 3). The substrate, ^3[H]-dopamine, was prepared by mixing 3,4-[RING-2,5,6-^3H]dihydroxyphenylethylamine (dopamine) (30 Ci/mmol) (manufactured by New England Nuclear) with dopamine hydrochloride (manufactured by LKT Laboratories) such that a final concentration of 0.1 mM was achieved during the use.
(§2) Chromaffin granule membrane vesicles were prepared in the same manner as in Example 5, and uptake of radiolabeled ATP into the vesicles was measured. Transport activity of catecholamine (dopamine) and ATP-dependent proton transport by V-ATPase were also measured in the same manner as in Example 5.

V-ATPase = target: T1, V-ATPase (Bos taurus, UniProt P31404); test: ATP-dependent proton transport by V-ATPase (acridine orange / oxonol-V fluorescence quenching); format: biochemical, bovine
T1 construct: from tissue; host or cells: bovine adrenal medulla chromaffin granule membranes
Protocol: as §1
ATP-dependent proton transport by V-ATPase was measured according to Reference B. Proton transport activity was measured using a spectrofluorometer at excitation wavelength of 492 nm and a fluorescence wavelength 540 nm, wherein fluorescence quenching of acridine orange was used as an index (N = 2). The transmembrane potential generated was measured using a spectrofluorometer at an excitation wavelength of 580 nm and a fluorescence wavelength of 630 nm, wherein fluorescence quenching of oxonol-V was used as an index (N = 2). The acridine measurement liquid (2 ml) contained 20 mM MOPS-tris (pH 7.0), 0.2 M sucrose, 0.1 M potassium chloride, 5 mM magnesium acetate, 0.2 µg valinomycin, 2 µM acridine orange, and about 20 µg of chromaffin granules. The oxonol-V measurement liquid (2 ml) contained 20 mM MOPS-tris (pH 7.0), 0.3 M sucrose, 5 mM magnesium acetate, 5 µM oxonol-V, and about 20 µg of chromaffin granules.
as §2

[1] = tested on: human epidermal keratinocytes; test: Imiquimod-induced ATP secretion in keratinocytes; format: cell-based; settings: 18 hours incubation, imiquimod 15 minutes, N = 8
Protocol: In the same manner as in Example 1, keratinocytes were cultured at 2.5×10^4 cells/well in a 24-well plate at 37°C in 5% CO2 for 4 days. The medium was replaced with HBSS (manufactured by Gibco) supplemented with 1 µM or 10 µM imeglimin, and incubation was performed at 37°C in 5% CO2 for 18 hours. Thereafter, imiquimod was added thereto at 1 µg/ml or 0.5 µg/ml, and incubation was performed for 15 minutes, followed by collection of 200 µl of the supernatant. The supernatant was immediately treated on a heat block at 95°C for 10 minutes, and ATP in the supernatant was quantified using a ATP Assay Kit - Luminescence (manufactured by Dojindo) (N = 8).

ATP-loaded vesicles = test: MANT-ATP accumulation in ATP-loaded granules of keratinocytes (confocal microscopy); format: cell-based, human; settings: 10 µM imeglimin, 19 hours; 0.3 mM MANT-ATP
Protocol: Keratinocytes were cultured in the same manner as in Example 8. Keratinocytes were cultured at 4 × 10^4 cells/ml in a glass-bottom dish (35 mm, manufactured by Matsunami Glass Ind., Ltd.) at 37°C in 5% CO2 for 2 days. The culture medium was then replaced with a medium supplemented with MANT-ATP (manufactured by Invitrogen) at a final concentration of 0.3 mM, and further incubation was performed for 4.5 hours. Subsequently, imeglimin was added thereto to a final concentration of 10 µM, and further incubation was performed at 37°C in 5% CO2 for 19 hours. Thereafter, the cells were washed twice with HBSS (manufactured by Gibco) and observed using an inverted confocal laser microscope (FV-1000 OSR, manufactured by Olympus Corporation).

[2] = tested on: imiquimod-induced psoriasis relapse; test: Imiquimod-induced psoriasis relapse model; format: in vivo, mice; settings: imeglimin 40 mg/kg orally, alternate days Day 8 to 22, then daily from Day 23; compared to IMQ
Protocol: To the left auricle of each mouse, 62.5 mg of 5% imiquimod cream (Beselna Cream 5%) was applied once daily a total of seven times (Days 1 to 7) in accordance with Example 19 to induce imiquimod-induced psoriasis. Thereafter, the imiquimod treatment was interrupted, and imeglimin (40 mg/kg) was orally administered on alternate days for 2 weeks (Day 8 to 22) (IMG). Mice without administration of imeglimin were designated IMQ. On Day 23, the imiquimod treatment was resumed, and 62.5 mg of 5% imiquimod cream (Beselna Cream 5%) was applied once daily a total of […]. In parallel, imeglimin (40 mg/kg) was orally administered daily to IMG.

[3] = concentrations of up to 5 mM, data not shown

T1 sequence (P31404 whole entry, looked up): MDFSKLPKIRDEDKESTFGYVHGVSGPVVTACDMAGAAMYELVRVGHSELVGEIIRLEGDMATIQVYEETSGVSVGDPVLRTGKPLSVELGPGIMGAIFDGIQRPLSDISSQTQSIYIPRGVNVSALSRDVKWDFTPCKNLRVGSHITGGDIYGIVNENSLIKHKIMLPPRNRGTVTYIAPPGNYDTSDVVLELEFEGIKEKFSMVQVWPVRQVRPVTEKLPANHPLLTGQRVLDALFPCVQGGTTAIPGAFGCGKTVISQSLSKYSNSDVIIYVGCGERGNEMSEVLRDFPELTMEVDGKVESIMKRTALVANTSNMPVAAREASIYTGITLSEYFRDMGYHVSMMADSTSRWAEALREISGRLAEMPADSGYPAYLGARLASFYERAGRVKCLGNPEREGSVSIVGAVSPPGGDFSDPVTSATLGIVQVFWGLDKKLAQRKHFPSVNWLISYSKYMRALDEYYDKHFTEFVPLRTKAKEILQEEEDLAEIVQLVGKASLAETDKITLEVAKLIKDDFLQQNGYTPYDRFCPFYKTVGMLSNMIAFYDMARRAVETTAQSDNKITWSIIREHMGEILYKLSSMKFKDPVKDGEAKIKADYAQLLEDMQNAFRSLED

C=C(OP(=O)(O)O)C(=O)O [PEP, phosphoenolpyruvic acid]
inhibition of catecholamine transport (catecholamine transport; [3]): did not inhibit | ATP-dependent dopamine transport activity (catecholamine transport; in the presence of 5 mM PEP, control 11.07 ± 0.129, N = 3): 12.41 ± 0.250 nmol/mg protein | quenching of oxonol-V fluorescence (transmembrane potential) (V-ATPase; addition of 5 mM PEP, ATP alone quenched by 40%, N = 2): did not change the level of quenching | quenching of acridine orange fluorescence (proton transport) (V-ATPase; addition of 5 mM PEP, ATP alone quenched by 62%, N = 2): did not change the level of quenching | inhibition of V-ATPase (V-ATPase; [3]): did not inhibit

C[C@H]1N=C(N(C)C)N=C(N)N1 [imeglimin]
ATP secretion promoted by imiquimod ([1]; 1 µM imeglimin): strongly inhibited | ATP secretion promoted by imiquimod ([1]; 10 µM imeglimin): strongly inhibited | accumulation of MANT-ATP in granules (ATP-loaded vesicles): this accumulation was absent | psoriatic symptoms (auricular thickness) after resumed imiquimod treatment [2]: markedly reduced
